Laboratory results: patent publication US11040031B2, “Pyrazole derivatives as MALT1 inhibitors” (Janssen Pharmaceutica NV, priority 2018, dated 2021)
Like-named read-outs stand apart in the source and are kept apart here.

Key:
[1] = tested on: Secretion of IL6 by OCI-LY3 ABC-DLBCL cells; test: Human IL6 Mesoscale assay (OCI-LY3); assay type: cell-based; conditions: read-out: Human IL6 Mesoscale assay (OCI-LY3)
Protocol: (§1) NFKB signaling regulates the secretion of multiple cytokines, including IL6 and IL10. Secretion of the cytokines IL6 and IL10 by TMD8 or OCI-LY3 ABC-DLBCL cells was measured using a mesoscale assay.
(§2) Cell passage number should not exceed 30. Cells should be kept between 0.5-2.5 million cells per mL during culturing and cells should be supplemented every 2-3 days with fresh 50 µM beta-mercaptoenthanol. No beta-mercaptoethanol was used during the mesoscale assay.
(§3) DMSO control wells were used to determine the maximum signal (High Control (HC)). […] Compounds and cells were incubated for 24 h at 37° C. and 5% CO2 (assay volume is 150 μL). After 24 h of incubation 50 μL of the supernatant was transferred to a MSD plate (V-Plex Proinflammation Panel 1 (human) kit, Mesoscale (MSD)) and incubated for 2 h with vigorous shaking (600 rpm) at room temperature. Following incubation, plates were washed 3× with PBS+0.05% Tween-20 and 25 μL detection antibody solution (IL6 & IL10 antibodies in diluent 3 (MSD)) was added per well followed by 2 h of incubation with vigorous shaking (600 rpm) at room temperature. After 3× washes with PBS+0.05% Tween-20, plates were incubated with 150 μL 2× Read Buffer T and read on SECTOR imager.

[2] = target: T1, full-length MALT1 protein (Strep-MALT1(1-824)-His) (Homo sapiens, UniProt Q9UDY8); test: biochemical;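 also: fluorogenic LRSR-AMC substrate cleavage by MALT1, 50 min compound preincubation then 4 h reaction at RT, 11-point dilution from 30 µM, scaled between enzyme-free and untreated enzyme controls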
T1 sequence (Q9UDY8 1-824): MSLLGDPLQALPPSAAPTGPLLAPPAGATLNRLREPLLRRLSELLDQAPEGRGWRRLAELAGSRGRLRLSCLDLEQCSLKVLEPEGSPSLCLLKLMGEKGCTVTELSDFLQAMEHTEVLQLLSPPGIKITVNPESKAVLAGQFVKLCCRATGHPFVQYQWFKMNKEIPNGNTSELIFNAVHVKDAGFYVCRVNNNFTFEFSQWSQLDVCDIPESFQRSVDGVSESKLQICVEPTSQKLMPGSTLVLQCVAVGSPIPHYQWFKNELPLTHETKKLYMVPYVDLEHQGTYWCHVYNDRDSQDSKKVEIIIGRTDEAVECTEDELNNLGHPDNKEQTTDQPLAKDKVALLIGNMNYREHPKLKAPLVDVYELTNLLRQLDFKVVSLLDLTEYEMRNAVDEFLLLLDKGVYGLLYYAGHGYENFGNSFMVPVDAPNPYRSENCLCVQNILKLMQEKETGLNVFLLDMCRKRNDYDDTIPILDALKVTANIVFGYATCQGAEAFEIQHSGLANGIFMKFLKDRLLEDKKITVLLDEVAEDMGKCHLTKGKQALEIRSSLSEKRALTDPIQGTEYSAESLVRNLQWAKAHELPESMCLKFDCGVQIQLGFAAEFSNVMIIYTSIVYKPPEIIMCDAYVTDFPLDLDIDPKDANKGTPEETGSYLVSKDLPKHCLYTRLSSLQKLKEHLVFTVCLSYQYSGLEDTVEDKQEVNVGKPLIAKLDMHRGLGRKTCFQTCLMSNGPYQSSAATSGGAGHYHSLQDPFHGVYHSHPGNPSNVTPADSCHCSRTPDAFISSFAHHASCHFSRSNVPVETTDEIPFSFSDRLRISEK

[3] = tested on: Secretion of IL10 by OCI-LY3 ABC-DLBCL cells; test: Human IL10 Mesoscale assay (OCI-LY3); assay type: cell-based; conditions: read-out: Human IL10 Mesoscale assay (OCI-LY3)
Protocol: as §1, §2, §3

[4] = OCI-LY3 cells, 24 h incubation, supernatant, MSD V-Plex

N#Cc1ccc(-n2ncc(C(=O)Nc3cnc(-n4nccn4)c(C#N)c3)c2C(F)(F)F)nc1N [Cpd 139, 1-(6-Amino-5-cyanopyridin-2-yl)-N-(5-cyano-6-(2H-1,2,3-triazol-2-yl)pyridin-3-yl)-5-(trifluoromethyl)-1H-pyrazole-4-carboxamide]
IC50 [1, 4]: 74 nM
IC50 [2]: 26 nM
IC50 [3, 4]: 76 nM

N#Cc1ccc(-n2ncc(C(=O)Nc3cnc(-n4nccn4)c(Cl)c3)c2C(F)(F)F)nc1N [Cpd 140, 1-(6-amino-5-cyanopyridin-2-yl)-N-(5-chloro-6-(2H-1,2,3-triazol-2-yl)pyridin-3-yl)-5-(trifluoromethyl)-1H-pyrazole-4-carboxamide]
IC50 [1, 4]: 132 nM
IC50 [2]: 58 nM
IC50 [3, 4]: 123 nM

Cc1ccc(N)nc1-n1ncc(C(=O)Nc2cnc(-n3nccn3)c(C#N)c2)c1C(F)(F)F [Cpd 141, 1-(6-amino-3-methylpyridin-2-yl)-N-(5-cyano-6-(2H-1,2,3-triazol-2-yl)pyridin-3-yl)-5-(trifluoromethyl)-1H-pyrazole-4-carboxamide]
IC50 [1, 4]: 427 nM
IC50 [2]: 100 nM
IC50 [3, 4]: 407 nM

Cc1cnc(N)cc1-n1ncc(C(=O)Nc2cnc(-n3nccn3)c(C#N)c2)c1C(F)(F)F [Cpd 142, 1-(2-amino-5-methylpyridin-4-yl)-N-(5-cyano-6-(2H-1,2,3-triazol-2-yl)pyridin-3-yl)-5-(trifluoromethyl)-1H-pyrazole-4-carboxamide]
IC50 [1, 4]: 676 nM
IC50 [2]: 22 nM
IC50 [3, 4]: 355 nM

Cc1c(-n2ncc(C(=O)Nc3cnc(-n4nccn4)c(C#N)c3)c2C(F)(F)F)ccnc1N [Cpd 143, 1-(2-amino-3-methylpyridin-4-yl)-N-(5-cyano-6-(2H-1,2,3-triazol-2-yl)pyridin-3-yl)-5-(trifluoromethyl)-1H-pyrazole-4-carboxamide]
IC50 ([1]; OCI-Ly3, 24 h): 1050 nM
IC50 [2]: 110 nM
IC50 ([3]; OCI-Ly3, 24 h): 617 nM

N#Cc1cc(NC(=O)c2cnn(-c3ccc(Cl)c(N)n3)c2C(F)(F)F)cnc1-n1nccn1 [Cpd 144, 1-(6-amino-5-chloropyridin-2-yl)-N-(5-cyano-6-(2H-1,2,3-triazol-2-yl)pyridin-3-yl)-5-(trifluoromethyl)-1H-pyrazole-4-carboxamide]
IC50 ([1]; OCI-Ly3, 24 h): 46 nM
IC50 [2]: 35 nM
IC50 ([3]; OCI-Ly3, 24 h): 26 nM

Cc1cc(F)c(N)nc1-n1ncc(C(=O)Nc2cnc(-n3nccn3)c(C#N)c2)c1C(F)(F)F [Cpd 145, 1-(6-amino-5-fluoro-3-methylpyridin-2-yl)-N-(5-cyano-6-(2H-1,2,3-triazol-2-yl)pyridin-3-yl)-5-(trifluoromethyl)-1H-pyrazole-4-carboxamide]
IC50 ([1]; OCI-Ly3, 24 h): 17 nM
IC50 [2]: 32 nM
IC50 ([3]; OCI-Ly3, 24 h): 18 nM

Cc1cc(F)c(N)nc1-n1ncc(C(=O)Nc2cnc(-n3nccn3)c(Cl)c2)c1C(F)(F)F [Cpd 146, 1-(6-amino-5-fluoro-3-methylpyridin-2-yl)-N-(5-chloro-6-(2H-1,2,3-triazol-2-yl)pyridin-3-yl)-5-(trifluoromethyl)-1H-pyrazole-4-carboxamide]
IC50 ([1]; OCI-Ly3, 24 h): 195 nM
IC50 [2]: 107 nM
IC50 ([3]; OCI-Ly3, 24 h): 158 nM

Nc1nc(-n2ncc(C(=O)Nc3cnc(-n4nccn4)c(C(F)(F)F)c3)c2C(F)(F)F)ccc1F [Cpd 147, N-(6-(2H-1,2,3-triazol-2-yl)-5-(trifluoromethyl)pyridin-3-yl)-1-(6-amino-5-fluoropyridin-2-yl)-5-(trifluoromethyl)-1H-pyrazole-4-carboxamide]
IC50 ([1]; OCI-Ly3, 24 h): 52 nM
IC50 [2]: 69 nM
IC50 ([3]; OCI-Ly3, 24 h): 40 nM

N#Cc1cc(NC(=O)c2cnn(-c3cc(N)ncc3Cl)c2C(F)(F)F)cnc1-n1nccn1 [Cpd 148, 1-(2-amino-5-chloropyridin-4-yl)-N-(5-cyano-6-(2H-1,2,3-triazol-2-yl)pyridin-3-yl)-5-(trifluoromethyl)-1H-pyrazole-4-carboxamide]
IC50 ([1]; OCI-Ly3, 24 h): 398 nM
IC50 [2]: 39 nM
IC50 ([3]; OCI-Ly3, 24 h): 263 nM

Nc1cc(-n2ncc(C(=O)Nc3cnc(-n4nccn4)c(Cl)c3)c2C(F)(F)F)c(Cl)cn1 [Cpd 149, 1-(2-amino-5-chloropyridin-4-yl)-N-(5-chloro-6-(2H-1,2,3-triazol-2-yl)pyridin-3-yl)-5-(trifluoromethyl)-1H-pyrazole-4-carboxamide]
IC50 [1, 4]: 166 nM
IC50 [2]: 85 nM
IC50 [3, 4]: 155 nM

CNc1nc(-n2ncc(C(=O)Nc3cnc(-n4nccn4)c(C#N)c3)c2C(F)(F)F)ccc1F [Cpd 150, N-(5-cyano-6-(2H-1,2,3-triazol-2-yl)pyridin-3-yl)-1-(5-fluoro-6-(methylamino)pyridin-2-yl)-5-(trifluoromethyl)-1H-pyrazole-4-carboxamide]
IC50 [1, 4]: 269 nM
IC50 [2]: 100 nM
IC50 [3, 4]: 204 nM

Cc1cnccc1-n1ncc(C(=O)Nc2cnc(-n3nccn3)c(Cl)c2)c1C(F)(F)F [Cpd 158, N-(5-chloro-6-(2H-1,2,3-triazol-2-yl)pyridin-3-yl)-1-(3-methylpyridin-4-yl)-5-(trifluoromethyl)-1H-pyrazole-4-carboxamide]
IC50 ([1]; OCI-Ly3, 24 h): 275 nM
IC50 [2]: 209 nM
IC50 ([3]; OCI-Ly3, 24 h): 302 nM

N#Cc1cc(NC(=O)c2cnn(-c3nc(Cl)ccc3Cl)c2C(F)(F)F)cnc1-n1nccn1 [Cpd 162, N-(5-cyano-6-(2H-1,2,3-triazol-2-yl)pyridin-3-yl)-1-(3,6-dichloropyridin-2-yl)-5-(trifluoromethyl)-1H-pyrazole-4-carboxamide]
IC50 [1, 4]: 251 nM
IC50 [2]: 302 nM
IC50 [3, 4]: 182 nM

Cc1cc(Cl)ccc1-n1ncc(C(=O)Nc2cnc(-n3nccn3)c(C#N)c2)c1C(F)(F)F [Cpd 166, 1-(4-chloro-2-methylphenyl)-N-(5-cyano-6-(2H-1,2,3-triazol-2-yl)pyridin-3-yl)-5-(trifluoromethyl)-1H-pyrazole-4-carboxamide]
IC50 [1, 4]: 66 nM
IC50 [2]: 50 nM
IC50 [3, 4]: 78 nM

Cc1c(F)cccc1-n1ncc(C(=O)Nc2cnc(-n3nccn3)c(C#N)c2)c1C(F)(F)F [Cpd 167, N-(5-cyano-6-(2H-1,2,3-triazol-2-yl)pyridin-3-yl)-1-(3-fluoro-2-methylphenyl)-5-(trifluoromethyl)-1H-pyrazole-4-carboxamide]
IC50 [1, 4]: 54 nM
IC50 [2]: 69 nM
IC50 [3, 4]: 41 nM

Cc1c(-n2ncc(C(=O)Nc3cnc(-n4nccn4)c(C#N)c3)c2C(F)(F)F)ccc(F)c1F [Cpd 168, N-(5-cyano-6-(2H-1,2,3-triazol-2-yl)pyridin-3-yl)-1-(3,4-difluoro-2-methylphenyl)-5-(trifluoromethyl)-1H-pyrazole-4-carboxamide]
IC50 [1, 4]: 78 nM
IC50 [2]: 74 nM
IC50 [3, 4]: 46 nM

N#Cc1ccc(-n2ncc(C(=O)Nc3cnc(-n4nccn4)c(C#N)c3)c2C(F)(F)F)cc1 [Cpd 169, N-(5-cyano-6-(2H-1,2,3-triazol-2-yl)pyridin-3-yl)-1-(4-cyanophenyl)-5-(trifluoromethyl)-1H-pyrazole-4-carboxamide]
IC50 [1, 4]: 105 nM
IC50 [2]: 91 nM
IC50 [3, 4]: 76 nM

Cc1cc(F)ccc1-n1ncc(C(=O)Nc2cc(C#N)c(-n3nccn3)nc2C)c1C(F)(F)F [Cpd 170, N-(5-cyano-2-methyl-6-(2H-1,2,3-triazol-2-yl)pyridin-3-yl)-1-(4-fluoro-2-methylphenyl)-5-(trifluoromethyl)-1H-pyrazole-4-carboxamide]
IC50 [1, 4]: 417 nM
IC50 [2]: 102 nM
IC50 [3, 4]: 380 nM

Cc1c(F)cccc1-n1ncc(C(=O)Nc2cnc(-n3nccn3)c(Cl)c2)c1C(F)(F)F [Cpd 171, N-(5-chloro-6-(2H-1,2,3-triazol-2-yl)pyridin-3-yl)-1-(3-fluoro-2-methylphenyl)-5-(trifluoromethyl)-1H-pyrazole-4-carboxamide]
IC50 [1, 4]: 98 nM
IC50 [2]: 145 nM
IC50 [3, 4]: 76 nM
